Measurements from US9463256B2, “Pretargeting kit, method and agents used therein” (KONINKLIJKE PHILIPS N.V., priority 2010, dated 2016).

Columns and labels:
LS174T tumor model [1] = assay: Biodistribution experiments in tumor bearing mice pretargeted with CC49-TCO constructs; type: in vivo, Nude female Balb/C mice; conditions: 3 h after injection
Description: (§1) LS174T tumor model. The human colon cancer cell line LS174T was obtained from the ATCC and maintained in Eagle's minimal essential medium (Sigma) supplemented with 10% heat inactivated fetal calf serum (Gibco), penicillin (100 U/mL), streptomycin (100 μg/mL) and 2 mM Glutamax. Nude female Balb/C mice (20-25 g body weight, Charles River Laboratories) were inoculated subcutaneously with 5×10^6 cells in 100 μL sterile PBS.
Dual isotope biodistribution experiments were performed by injecting tumor bearing mice (n=3) intravenously with ^125I-labeled CC49-TCO constructs with and without PEG10 spacer (100 μg/100 μL per mouse, ca. […] 0.8 MBq). Three hours after tetrazine administration, the animals were anesthetized with isoflurane and sacrificed by cervical dislocation. Blood was withdrawn by heart puncture and organs and tissues of interest were harvested, blotted dry and weighed. The radioactivity of the samples was measured in a γ-counter along with standards to determine the % ID/gram. The energy windows were set to 10-80 keV and 100-510 keV for ^125I and ^111In, respectively.

LS174T tumor model [2] = assay: Tumor targeting of CC49-TCO (20b) constructs; type: in vivo, Nude female Balb/C mice; conditions: 3 h post-injection
Description: as §1
[…] The mice that received ^125I—CC49 were sacrificed 4 days post mAb injection. The mice that received ^125I—CC49-TCO 20b were injected with ^111In-DOTA-tetrazine 28 at 72 h post-mAb injection (25 eq. with respect to mAb, ca. 0.8 MBq) and were sacrificed 3 h after tetrazine injection. At the time of sacrifice, blood was collected by heart puncture and organs and tissues of interest were harvested, blotted dry, weighed and added with 1 mL PBS. The radioactivity in all samples was measured in a gamma-counter (Wizard 3, Perkin Elmer) with a dual-isotope protocol (energy windows set to 10-80 keV and 100-510 keV for ^125I and ^111In, respectively) along with standards to determine the percent injected dose per gram tissue (% ID/g).

LS174T tumor model [3] = assay: SPECT/CT imaging of tumor-bearing mice; type: in vivo
Description: as §1
Tumor-bearing mice were injected with ^111In-tetrazine 28 (21 μg/75 μL per mouse, 20-50 MBq) 3 or 4 days after receiving 100 μg of a CC49-TCO construct without PEG10 spacer. Approximately 1 h later, the mice were anesthetized and positioned on an animal bed equipped with a nose cone for anesthesia and a sensor for respiratory monitoring. Single photon emission computed tomography (SPECT) was performed 2 h post tetrazine injection with a four-headed multi-pinhole small animal SPECT/CT imaging system (NanoSPECT, Bioscan Inc.). The SPECT acquisition (1 h total) was performed with 1.4 mm diameter pinholes and a 120-140 sec acquisition time per view (24 projections). The energy window for ^111In was set at 245 keV±15% and 171 keV±20%. Two-to-four days after the first scan, the mice were euthanized by anesthesia overdose and a second SPECT/CT scan was acquired overnight. Prior to each SPECT session a CT scan (2 sec per projection, 360 projections) was performed to obtain anatomical information on radioactivity distribution. After the acquisition, the data was reconstructed iteratively with the manufacturer's software (InVivoScope 1.39, patch 1). Regions of interest (ROIs) were drawn manually in triplicate for tumor, liver, kidney and thigh muscle. A phantom filled with a known amount of ^111In was used to calibrate the scanner for tissue radioactivity quantification. The image of three mice injected with CC49-TCO-O minor (CC49-20b), CC49-TCO-O major (CC49-20a) and CC49-TCO-C minor (CC49-14b) on a representative time scale are depicted in FIG. 13 A-C, respectively.
FIG. 13: (left) SPECT/CT projections of live mice 2 h after injection of ^111In-tetrazine 28 (21 μg/75 μL per mouse, ca. 40 MBq), 3-4 days after the administration of (A) CC49-TCO-O minor (CC49-20b), (B) CC49-TCO-O major (CC49-20a) or (C) CC49-TCO-C minor (CC49-14b) (100 μg/100 μL per mouse). (Right), post mortem SPECT/CT scans of the same mice 2-4 days after the first imaging session. White arrows indicate tumors.

[4] = Trans-cyclooctene stability in vivo (blood samples reacted with excess ^111In-tetrazine 28); design: species or system mice; conditions: TCO bound to CC49, tumor-free mice
Description: Tumor-free mice (n=3 per group) were injected intravenously with CC49-PEG10-TCO-O major (CC49-23a; 8.4 TCO per CC49; 300 μg/100 μL per mouse), CC49-PEG10-TCO-C minor (CC49-27b; 3.3 TCO per CC49, […]), and CC49-TCO-O major without spacer (CC49-20a; 8.0 TCO per CC49, 300 μg/100 μL per mouse). At selected time points (from 1 hour up to 4 days post injection) blood samples were withdrawn from the vena saphena and collected in vials containing heparin. The blood samples were weighed and an excess ^111In-tetrazine 28 was added. After 20 min incubation at 37° C., blood aliquots were 10-fold diluted with PBS and analyzed by SDS-PAGE. The cycloaddition yields were determined from the radioactivity in the bands corresponding to the mAb and the counts were quantified with AIDA Image Analyzer software. The amount of mAb present in blood at each time point (% ID/g blood) was evaluated in three separate groups of mice (n=3), which were injected with the corresponding ^125I—CC49-TCO (300 μg/100 μL per mouse, ca. 0.2 MBq). The data, corrected for mAb clearance, were normalized to 100% ID TCO at t=0.
This experiment was carried out to expand the series of in vivo TCO stability measurements described in Example 6. […] In the new experiment, following the same procedure, we tested the in vivo stability of a CC49-bound TCO minor without PEG spacer (20b, 6.9 equivalents bound).

[5] = 1 day pretargeting with CC49-14b
[6] = 1 day pretargeting with CC49-20a
[7] = 1 day pretargeting with CC49-20b
[8] = 3 days pretargeting with CC49-14b
[9] = 3 days pretargeting with CC49-20a
[10] = 3 days pretargeting with CC49-20b
[11] = mice pretreated with CC49-TCO(8.5) 72 h before
[12] = mice pretreated with CC49-TCO(12.7) 72 h before
[13] = mice pretreated with CC49-TCO(18.2) 72 h before

## O=C([O-])CN1CCN(CC(=O)[O-])CCN(CC(=O)NCCOCCOCCOCCOCCOCCOCCOCCOCCOCCOCCOCCNC(=O)CCCC(=O)Nc2ccc(-c3nnc(-c4ccccn4)nn3)nc2)CCN(CC(=O)[O-])CC1.[111In+3] [^111In-tetrazine 28]
LS174T tumor model [1]; [5]
  ^111In-tetrazine in Blood: 1.12 ± 0.09 % ID/gram
  ^111In-tetrazine in Bone: 0.27 ± 0.08 % ID/gram
  ^111In-tetrazine in Brain: 0.05 ± 0.01 % ID/gram
  ^111In-tetrazine in Heart: 0.46 ± 0.12 % ID/gram
  ^111In-tetrazine in Kidney: 3.12 ± 0.33 % ID/gram
  ^111In-tetrazine in Liver: 1.17 ± 0.35 % ID/gram
  ^111In-tetrazine in Lung: 0.79 ± 0.24 % ID/gram
  ^111In-tetrazine in Muscle: 0.22 ± 0.07 % ID/gram
  ^111In-tetrazine in Spleen: 0.53 ± 0.14 % ID/gram
  ^111In-tetrazine in Tumor: 2.59 ± 0.35 % ID/gram
LS174T tumor model [1]; [6]
  ^111In-tetrazine in Blood: 2.39 ± 1.77 % ID/gram
  ^111In-tetrazine in Bone: 0.33 ± 0.16 % ID/gram
  ^111In-tetrazine in Brain: 0.10 ± 0.06 % ID/gram
  ^111In-tetrazine in Heart: 0.84 ± 0.71 % ID/gram
  ^111In-tetrazine in Kidney: 2.84 ± 0.35 % ID/gram
  ^111In-tetrazine in Liver: 2.05 ± 1.03 % ID/gram
  ^111In-tetrazine in Lung: 1.13 ± 0.55 % ID/gram
  ^111In-tetrazine in Muscle: 0.33 ± 0.22 % ID/gram
  ^111In-tetrazine in Spleen: 0.83 ± 0.46 % ID/gram
  ^111In-tetrazine in Tumor: 2.40 ± 0.16 % ID/gram
LS174T tumor model [1]; [7]
  ^111In-tetrazine in Blood: 1.61 ± 0.45 % ID/gram
  ^111In-tetrazine in Bone: 0.40 ± 0.05 % ID/gram
  ^111In-tetrazine in Brain: 0.07 ± 0.01 % ID/gram
  ^111In-tetrazine in Heart: 0.50 ± 0.04 % ID/gram
  ^111In-tetrazine in Kidney: 3.39 ± 0.84 % ID/gram
  ^111In-tetrazine in Liver: 1.41 ± 0.45 % ID/gram
  ^111In-tetrazine in Lung: 0.97 ± 0.16 % ID/gram
  ^111In-tetrazine in Muscle: 0.24 ± 0.06 % ID/gram
  ^111In-tetrazine in Spleen: 0.65 ± 0.12 % ID/gram
  ^111In-tetrazine in Tumor: 3.42 ± 0.40 % ID/gram
LS174T tumor model [1]; [8]
  ^111In-tetrazine in Blood: 0.54 ± 0.11 % ID/gram
  ^111In-tetrazine in Bone: 0.20 ± 0.07 % ID/gram
  ^111In-tetrazine in Brain: 0.03 ± 0.01 % ID/gram
  ^111In-tetrazine in Heart: 0.24 ± 0.07 % ID/gram
  ^111In-tetrazine in Kidney: 2.82 ± 0.28 % ID/gram
  ^111In-tetrazine in Liver: 0.84 ± 0.21 % ID/gram
  ^111In-tetrazine in Lung: 0.50 ± 0.11 % ID/gram
  ^111In-tetrazine in Muscle: 0.16 ± 0.04 % ID/gram
  ^111In-tetrazine in Spleen: 0.34 ± 0.09 % ID/gram
  ^111In-tetrazine in Tumor: 2.76 ± 1.36 % ID/gram
LS174T tumor model [1]; [9]
  ^111In-tetrazine in Blood: 0.79 ± 0.39 % ID/gram
  ^111In-tetrazine in Bone: 0.15 ± 0.00 % ID/gram
  ^111In-tetrazine in Brain: 0.26 ± 0.11 % ID/gram
  ^111In-tetrazine in Heart: 0.30 ± 0.03 % ID/gram
  ^111In-tetrazine in Kidney: 3.16 ± 0.57 % ID/gram
  ^111In-tetrazine in Liver: 0.88 ± 0.13 % ID/gram
  ^111In-tetrazine in Lung: 0.58 ± 0.07 % ID/gram
  ^111In-tetrazine in Muscle: 0.21 ± 0.02 % ID/gram
  ^111In-tetrazine in Spleen: 0.43 ± 0.03 % ID/gram
  ^111In-tetrazine in Tumor: 3.11 ± 0.80 % ID/gram
LS174T tumor model [1]; [10]
  ^111In-tetrazine in Blood: 0.59 ± 0.10 % ID/gram
  ^111In-tetrazine in Bone: 0.16 ± 0.02 % ID/gram
  ^111In-tetrazine in Brain: 0.03 ± 0.01 % ID/gram
  ^111In-tetrazine in Heart: 0.22 ± 0.03 % ID/gram
  ^111In-tetrazine in Kidney: 2.59 ± 0.24 % ID/gram
  ^111In-tetrazine in Liver: 0.64 ± 0.06 % ID/gram
  ^111In-tetrazine in Lung: 0.46 ± 0.07 % ID/gram
  ^111In-tetrazine in Muscle: 0.18 ± 0.09 % ID/gram
  ^111In-tetrazine in Spleen: 0.35 ± 0.08 % ID/gram
  ^111In-tetrazine in Tumor: 2.56 ± 0.65 % ID/gram
LS174T tumor model [2]; [11]
  ^111In-tetrazine 28 in Blood: 0.45 ± 0.14 % ID/g
  ^111In-tetrazine 28 in Bone: 0.10 ± 0.03 % ID/g
  ^111In-tetrazine 28 in Brain: 0.02 ± 0.01 % ID/g
  ^111In-tetrazine 28 in Heart: 0.16 ± 0.03 % ID/g
  ^111In-tetrazine 28 in Kidney: 1.64 ± 0.28 % ID/g
  ^111In-tetrazine 28 in Liver: 0.44 ± 0.12 % ID/g
  ^111In-tetrazine 28 in Lung: 0.42 ± 0.06 % ID/g
  ^111In-tetrazine 28 in Muscle: 0.11 ± 0.05 % ID/g
  ^111In-tetrazine 28 in Spleen: 0.25 ± 0.05 % ID/g
  ^111In-tetrazine 28 in Tumor: 3.72 ± 1.45 % ID/g
LS174T tumor model [2]; [12]
  ^111In-tetrazine 28 in Blood: 0.37 ± 0.28 % ID/g
  ^111In-tetrazine 28 in Bone: 0.08 ± 0.02 % ID/g
  ^111In-tetrazine 28 in Brain: 0.01 ± 0.01 % ID/g
  ^111In-tetrazine 28 in Heart: 0.13 ± 0.05 % ID/g
  ^111In-tetrazine 28 in Kidney: 1.25 ± 0.24 % ID/g
  ^111In-tetrazine 28 in Liver: 0.29 ± 0.12 % ID/g
  ^111In-tetrazine 28 in Lung: 0.34 ± 0.10 % ID/g
  ^111In-tetrazine 28 in Muscle: 0.05 ± 0.00 % ID/g
  ^111In-tetrazine 28 in Spleen: 0.20 ± 0.06 % ID/g
  ^111In-tetrazine 28 in Tumor: 3.36 ± 1.69 % ID/g
LS174T tumor model [2]; [13]
  ^111In-tetrazine 28 in Blood: 0.12 ± 0.03 % ID/g
  ^111In-tetrazine 28 in Bone: 0.10 ± 0.02 % ID/g
  ^111In-tetrazine 28 in Brain: 0.04 ± 0.05 % ID/g
  ^111In-tetrazine 28 in Heart: 0.09 ± 0.03 % ID/g
  ^111In-tetrazine 28 in Kidney: 2.15 ± 0.17 % ID/g
  ^111In-tetrazine 28 in Liver: 0.26 ± 0.05 % ID/g
  ^111In-tetrazine 28 in Lung: 0.29 ± 0.01 % ID/g
  ^111In-tetrazine 28 in Muscle: 0.29 ± 0.43 % ID/g
  ^111In-tetrazine 28 in Spleen: 0.20 ± 0.02 % ID/g
  ^111In-tetrazine 28 in Tumor: 1.21 ± 0.22 % ID/g
LS174T tumor model [3]; 3 days after pre-treatment with CC49-TCO-O (both major and minor forms)
  ^111In-tetrazine uptake in tumor (SPECT/CT): high ^111In-tetrazine uptake in tumor
LS174T tumor model [3]; after the administration of CC49-TCO-C minor, 4 days delay between the two treatments
  radioactivity uptake (SPECT/CT): rather low radioactivity uptake
LS174T tumor model [3]; mice given CC49-TCO-C minor, 2 days after the early scan
  signal in the tumor at late scan (SPECT/CT): still present
LS174T tumor model [3]; mice pre-treated with CC49-TCO 0, 72-96 h after ^111In-tetrazine injection
  tumor radioactivity at late scan (SPECT/CT): still highly radioactive

## O=C(ON1C(=O)CCC1=O)c1ccc(COC2CC/C=C/CCC2)cc1 (centres unmarked) [20a, (E-major)-2,5-Dioxopyrrolidin-1-yl 4-((cyclooct-4-enyloxy)methyl)benzoate]
[4]
  time stable in vivo: at least 4 days
